The results in this text go back to patent publication US20220347096A1, “LIPOSOMAL CANNABINOIDS AND USES THEREOF” (YISSUM RESEARCH DEVELOPMENT COMPANY OF THE HEBREW …, priority 2019, published 2022).

This series in a line: Plasma CBD profile and PK after IV administration. Particulars: mice; for Plasma CBD, Mean ± SD: 12 mg/kg. In kind it is in vivo. The procedure: CBD was extracted from plasma samples that were spiked with cannabigerol (CBG, 1 mg/ml in methanol, Sigma, Cat. C-141-1) used as internal standard (IS) followed by dilution of the plasma five-fold in acetonitrile. After vigorous vortex it was centrifuged, and the upper phase was analyzed. Final IS concentration in the samples was 100 ng/ml.
Plasma extracts were analyzed by LCMS method. Specifically, LC-MS/MS analyses were conducted on a Sciex (Framingham, Mass., USA) Triple Quad™ 5500 mass spectrometer coupled with a Shimadzu (Kyoto, Japan) UHPLC System. The concentrations were calculated based on a calibration curve of CBD in plasma at a range of 1-1,000 ng/ml having 100 ng/ml of IS.
IV formulation: The formulation used for IV administration was 10 mg/g CBD formulation solubilized in Cremophor:Ethanol 50:50 solution. This formulation was diluted 10-fold with saline prior to injection to result in 1 mg/ml post dilution concentration. The diluted formulation was used within 1 h after preparation. […]
At the time-points detailed below, 3 mice were euthanized with CO2 and terminal blood was immediately collected from the retro-orbital sinus in labeled 0.5 ml K3EDTA blood collection tubes (Mini Collect, Greiner-bio-one, Austria). The blood was centrifuged at 2000×g for 10 minutes before plasma was extracted, collected in labeled tubes and frozen at −20° C. immediately after collection. The samples were then stored at −80° C. pending analysis. […]

Where [1] appears, read: female, BALB/C, mouse, in vivo, IV 12 mg/kg.

In general, AUC(0-inf) refers to total exposure, with the tail of the curve extrapolated. Low readings indicate low exposure, high ones high exposure. Broadly, the Cmax is the peak of the concentration-time curve. What is called Tmax is the time from dosing to the highest level. A word on the clearance: it is the volume of plasma or blood freed of the substance per unit of time. Read a low clearance as a low capacity for elimination. For orientation: half-life means the time in which the quantity being followed falls by half. With `C=C(C)[C@@H]1CCC(C)=C[C@H]1c1c(O)cc(CCCCC)cc1O` [CBD, 2-[(1R,6R)-6-Isopropenyl-3-methylcyclohex-2-en-1-yl]-5-pentylbenzene-1,3-diol], under setting [1], the AUC(0-inf) amounted to 5020 ng·h/mL, the C0 was 9460 ng/mL, the Cmax was 8860 ng/mL and the time of peak concentration (Tmax) came to 4.98 min. Under setting [1], this compound gave a clearance of 39.8 mL/min/kg and a half-life of 101 min. Also, where the note is “female, BALB/C, mouse, in vivo, IV 12 mg/kg in Cremophor:Ethanol diluted with saline, 5 min, read-out: Plasma CBD, Mean ± SD”, the concentration at 5 min amounted to 8860 ng/mL. Besides, where the note is “female, BALB/C, mouse, in vivo, IV 12 mg/kg, 1 h, read-out: Plasma CBD, Mean ± SD”, the concentration at 1 h was determined as 177 ± 40 ng/mL. For the same compound, the concentration at 4 h (female, BALB/C, mouse, in vivo, IV 12 mg/kg, 4 h, read-out: Plasma CBD, Mean ± SD) turned out to be 35 ± 11 ng/mL. In addition, the concentration at 8 h (female, BALB/C, mouse, in vivo, IV 12 mg/kg, 8 h, read-out: Plasma CBD, Mean ± SD) worked out at 9.5 ng/mL. Also, the AUC (female, BALB/C, mouse, in vivo, IV 12 mg/kg, read-out: AUC0—Tlast) came to 5000 ng·h/mL. In addition, the Vd (female, BALB/C, mouse, in vivo, IV 12 mg/kg, read-out: Vz) is 5.79 L/kg. Also, for the setting “IV 12 mg/kg”, the “AUC0—Tlast/Dose” value is listed as 417 (hr*ng/mL)/(mg/kg) and the Cmax/Dose is listed as 738 (ng/mL)/(mg/kg). Also, for the setting “IV 12 mg/kg in Cremophor:Ethanol diluted with saline, 5 min”, the “Plasma CBD, Mean ± SD” value was 8,856 ± 1,451 ng/ml. In addition, under “IV 12 mg/kg, 5 min”, the “Mean plasma CBD concentration normalized to dose (±SD)” value is 757 ± 124 ng/mL/mg/kg. Moreover, where the note is “IV 12 mg/kg, 1 h”, the “Mean plasma CBD concentration normalized to dose (±SD)” value was found to be 15 ± 3.46 ng/mL/mg/kg. Besides, the “Mean plasma CBD concentration normalized to dose (±SD)” value (IV 12 mg/kg, 4 h) is 2.99 ± 0.90 ng/mL/mg/kg. For the setting “IV 12 mg/kg, 8 h”, the “Mean plasma CBD concentration normalized to dose (±SD)” value came to 0.81 ± 0.31 ng/mL/mg/kg and the “Plasma CBD, Mean ± SD” value is 9.50 ± 3.67 ng/mL. Where the note is “IV 12 mg/kg, 24 h”, the “Mean plasma CBD concentration normalized to dose (±SD)” value was “BLOD”; the “Plasma CBD, Mean ± SD” value is “below the limit of detection and BLOD”. Besides, for the setting “IV 12 mg/kg, 48 h”, the “Mean plasma CBD concentration normalized to dose (±SD)” value is “BLOD”; the “Plasma CBD, Mean ± SD” value was “below the limit of detection and BLOD”.
